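These data come from cells grown in 96-well plates and exposed to compound for 48 hours at five concentrations. GI50 marks 50% less growth. The concentration for full growth arrest is given as TGI.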 Bounds are passed on as bounds.

One test concerns SK-MEL-28 melanoma. The test can be described thus: NCI-60 cell line screen, 48 h.
Compound `CCCNC(=O)CCC(C)[C@H]1CCC2C3C(C[C@H](OC(C)=O)[C@@]21C)[C@@]1(C)CCC2(C[C@H]1C[C@H]3OC(C)=O)OOC1(CCC(C)CC1)OO2` (stereo partly specified) registered a TGI greater than 100 µM.
For the compound `BrC/C=C/C[P+](c1ccccc1)(c1ccccc1)c1ccccc1`, the TGI is greater than 100 µM.
On to `COc1cc(NS(C)(=O)=O)ccc1N1Cc2cnc3ccc4[nH]c(C)cc1c4c23`, for which the TGI is greater than 100 µM.
Take `Cc1cc(=O)c2c([nH]1)NS(=O)(=O)NC2=O`: the TGI is greater than 100 µM.
Still for that read-out and setting: the value for `CC12CC(=O)C3C(C(=O)C1)C32C` (stereo unspecified) was greater than 100 µM.
In turn, `O=C1CN2C(c3ccccc3)=NN(c3ccc([N+](=O)[O-])cc3)C2(c2ccccc2)c2cc(Cl)ccc2N1CC1CC1` (stereo unspecified) came in with a TGI greater than 100 µM.
Still for that read-out and setting: with `C=CCNC(=S)/N=C/c1c(O)c2ccccc2oc1=O` the figure was greater than 100 µM; with `COc1ccc(C2(CC(C)O)SCCCS2)cc1` (stereo unspecified), greater than 100 µM.
Same read-out and setting: the value for `CC(=O)N(C(C)=O)C1=C2c3ccccc3N(S(=O)(=O)c3ccccc3)C2n2c(=O)n(-c3ccccc3)c(=O)n2C1` (stereo unspecified) was 58.2 µM.
Turning to `Cc1ccccc1C(O)(c1nccn1C)c1nccn1C`, the TGI was greater than 100 µM.
Same read-out and setting: the value for `O=C(NC(Cc1ccc(I)cc1)C(=O)O)c1ccc(I)cc1` (stereo unspecified) was greater than 100 µM; that for `O=[N+]([O-])/C(C(Cl)=C(Cl)Cl)=C(\Nc1cccc2cccnc12)SCc1ccccc1` was 33.9 µM; that for `O=C(N=Nc1cc(Cl)ccc1Cl)NNc1cc(Cl)ccc1Cl` was 61.2 µM.
Compound `O=C(CNc1ccccc1Cl)Nn1c(-c2ccccc2)nc2ccccc2c1=O` displayed a TGI of 55.9 µM.
Still for that read-out and setting: the value for `O=c1ccc2cc3ccc4cccc5ccc(c2o1)c3c45` was greater than 100 µM.
Same read-out and setting: the value for `CC1(C)N=C(C(N)=O)c2ncn(CCCO)c2N1` was greater than 100 µM; that for `O=S(=O)(O)c1cc2ccc1/C=C\c1ccc(cc1S(=O)(=O)O)N=Nc1ccc(c(S(=O)(=O)O)c1)/C=C\c1ccc(cc1S(=O)(=O)O)N=N2` was greater than 100 µM; that for `N#C/C(=C\c1cc(Br)c(O)c(Br)c1)c1cccnc1` was greater than 100 µM.

The next test deals with SW-620 colon. Briefly: NCI-60 cell line screen, 48 h.
`c1ccc2c(c1)NC(C1OC3CCCN3C1C1Nc3ccccc3S1)S2` (stereo unspecified) registered a TGI greater than 100 µM.
Still for that read-out and setting: the value for `CC(=O)O[C@]12CCCCCC1C1(O)C(O)CCC[C@H]12` (stereo partly specified) was greater than 100 µM.
The same measure, in the same setting: with `COCOc1ccc(Cn2c(=O)n(C)c(=O)c3c2ncn3C)cc1[N+](=O)[O-]` the figure was greater than 100 µM.
`O=C1C[C@H](Sc2ccccc2)C2(OCCO2)[C@@H](Sc2ccccc2)C1` had a TGI of 10.4 µM.
`BrC/C=C/C[P+](c1ccccc1)(c1ccccc1)c1ccccc1` gave a TGI greater than 100 µM.
Still for that read-out and setting: with `COc1cc(NS(C)(=O)=O)ccc1N1Cc2cnc3ccc4[nH]c(C)cc1c4c23` the figure was greater than 100 µM.
Compound `Cc1cc(=O)c2c([nH]1)NS(=O)(=O)NC2=O` displayed a TGI greater than 100 µM.
The same measure, in the same setting: with `CC12CC(=O)C3C(C(=O)C1)C32C` (stereo unspecified) the figure was greater than 100 µM.
Turning to `COc1cc([N+](=O)[O-])c(OC)cc1-c1nc2sc(Cl)cn2c1/C=N/Nc1ccccn1`, the GI50 was greater than 50 µM and the TGI is greater than 50 µM.
`O=C1CN2C(c3ccccc3)=NN(c3ccc([N+](=O)[O-])cc3)C2(c2ccccc2)c2cc(Cl)ccc2N1CC1CC1` (stereo unspecified) showed a TGI greater than 100 µM.
On the same count and under the same terms, the value for `C=CCNC(=S)/N=C/c1c(O)c2ccccc2oc1=O` was greater than 100 µM.
For the compound `COc1ccc(C2(CC(C)O)SCCCS2)cc1` (stereo unspecified), the TGI was greater than 100 µM.
Same read-out and setting: the value for `CC(=O)N(C(C)=O)C1=C2c3ccccc3N(S(=O)(=O)c3ccccc3)C2n2c(=O)n(-c3ccccc3)c(=O)n2C1` (stereo unspecified) was greater than 100 µM.
For the compound `Cc1ccccc1C(O)(c1nccn1C)c1nccn1C`, the TGI was greater than 100 µM.
For the compound `O=C(NC(Cc1ccc(I)cc1)C(=O)O)c1ccc(I)cc1` (stereo unspecified), the TGI is greater than 37.3 µM.
On the same count and under the same terms, the value for `O=[N+]([O-])/C(C(Cl)=C(Cl)Cl)=C(\Nc1cccc2cccnc12)SCc1ccccc1` was 36.8 µM; that for `O=C(CNc1ccccc1Cl)Nn1c(-c2ccccc2)nc2ccccc2c1=O` was 39.7 µM.
On the same count and under the same terms, with `Cc1cc2[nH]c3[nH]c(=O)[nH]c(=O)c3c2cc1C` the figure was greater than 100 µM; with `O=c1ccc2cc3ccc4cccc5ccc(c2o1)c3c45`, greater than 100 µM.
Consider `CC1(C)N=C(C(N)=O)c2ncn(CCCO)c2N1`, for which the TGI is greater than 100 µM.
Regarding `O=S(=O)(O)c1cc2ccc1/C=C\c1ccc(cc1S(=O)(=O)O)N=Nc1ccc(c(S(=O)(=O)O)c1)/C=C\c1ccc(cc1S(=O)(=O)O)N=N2`, the TGI was greater than 100 µM.
Turning to `N#C/C(=C\c1cc(Br)c(O)c(Br)c1)c1cccnc1`, the TGI is greater than 100 µM.

In the next test the test system is T-47D breast. The test can be described thus: NCI-60 cell line screen, 48 h.
With `O=C1C[C@H](Sc2ccccc2)C2(OCCO2)[C@@H](Sc2ccccc2)C1`, the TGI is greater than 43.5 µM.
On to `CCCNC(=O)CCC(C)[C@H]1CCC2C3C(C[C@H](OC(C)=O)[C@@]21C)[C@@]1(C)CCC2(C[C@H]1C[C@H]3OC(C)=O)OOC1(CCC(C)CC1)OO2` (stereo partly specified), for which the TGI is 38.4 µM.
Take `COc1cc([N+](=O)[O-])c(OC)cc1-c1nc2sc(Cl)cn2c1/C=N/Nc1ccccn1`: the GI50 was 20.6 µM and the TGI was greater than 50 µM.
`COc1ccc(C2(CC(C)O)SCCCS2)cc1` (stereo unspecified) gave a TGI greater than 100 µM.
Same read-out and setting: with `Cc1ccccc1C(O)(c1nccn1C)c1nccn1C` the figure was greater than 100 µM; with `O=[N+]([O-])/C(C(Cl)=C(Cl)Cl)=C(\Nc1cccc2cccnc12)SCc1ccccc1`, 40.2 µM.
Consider `O=C(N=Nc1cc(Cl)ccc1Cl)NNc1cc(Cl)ccc1Cl`, for which the TGI was greater than 100 µM.
On the same count and under the same terms, with `Cc1cc2[nH]c3[nH]c(=O)[nH]c(=O)c3c2cc1C` the figure was greater than 100 µM; with `CC1(C)N=C(C(N)=O)c2ncn(CCCO)c2N1`, greater than 100 µM.

Another test relates to TK-10 renal. The test can be described thus: NCI-60 cell line screen, 48 h.
Consider `c1ccc2c(c1)NC(C1OC3CCCN3C1C1Nc3ccccc3S1)S2` (stereo unspecified), for which the TGI is greater than 100 µM.
Still for that read-out and setting: the value for `CC(=O)O[C@]12CCCCCC1C1(O)C(O)CCC[C@H]12` (stereo partly specified) was greater than 100 µM; that for `COCOc1ccc(Cn2c(=O)n(C)c(=O)c3c2ncn3C)cc1[N+](=O)[O-]` was greater than 100 µM.
Same read-out and setting: with `O=C1C[C@H](Sc2ccccc2)C2(OCCO2)[C@@H](Sc2ccccc2)C1` the figure was 6.96 µM; with `CCCNC(=O)CCC(C)[C@H]1CCC2C3C(C[C@H](OC(C)=O)[C@@]21C)[C@@]1(C)CCC2(C[C@H]1C[C@H]3OC(C)=O)OOC1(CCC(C)CC1)OO2` (stereo partly specified), 58.8 µM.
For `BrC/C=C/C[P+](c1ccccc1)(c1ccccc1)c1ccccc1`, the TGI was found to be 42 µM.
For `COc1cc(NS(C)(=O)=O)ccc1N1Cc2cnc3ccc4[nH]c(C)cc1c4c23`, the TGI was greater than 100 µM.
`Cc1cc(=O)c2c([nH]1)NS(=O)(=O)NC2=O`: the TGI was greater than 100 µM.
Still for that read-out and setting: with `CC12CC(=O)C3C(C(=O)C1)C32C` (stereo unspecified) the figure was greater than 100 µM.
As for `COc1cc([N+](=O)[O-])c(OC)cc1-c1nc2sc(Cl)cn2c1/C=N/Nc1ccccn1`, the GI50 was 15.6 µM and the TGI is greater than 50 µM.
In turn, `O=C1CN2C(c3ccccc3)=NN(c3ccc([N+](=O)[O-])cc3)C2(c2ccccc2)c2cc(Cl)ccc2N1CC1CC1` (stereo unspecified) had a TGI greater than 100 µM.
Take `C=CCNC(=S)/N=C/c1c(O)c2ccccc2oc1=O`: the TGI was greater than 100 µM.
As to `COc1ccc(C2(CC(C)O)SCCCS2)cc1` (stereo unspecified), the TGI was greater than 100 µM.
Same read-out and setting: with `CC(=O)N(C(C)=O)C1=C2c3ccccc3N(S(=O)(=O)c3ccccc3)C2n2c(=O)n(-c3ccccc3)c(=O)n2C1` (stereo unspecified) the figure was greater than 100 µM; with `Cc1ccccc1C(O)(c1nccn1C)c1nccn1C`, greater than 100 µM; with `O=C(CNc1ccccc1Cl)Nn1c(-c2ccccc2)nc2ccccc2c1=O`, greater than 100 µM.
On the same count and under the same terms, with `Cc1cc2[nH]c3[nH]c(=O)[nH]c(=O)c3c2cc1C` the figure was greater than 100 µM; with `O=c1ccc2cc3ccc4cccc5ccc(c2o1)c3c45`, greater than 100 µM.
With `CC1(C)N=C(C(N)=O)c2ncn(CCCO)c2N1`, the TGI was greater than 100 µM.
`N#C/C(=C\c1cc(Br)c(O)c(Br)c1)c1cccnc1` showed a TGI of 87.2 µM.

For another test, the system named is UO-31 renal. The test can be described thus: NCI-60 cell line screen, 48 h.
`c1ccc2c(c1)NC(C1OC3CCCN3C1C1Nc3ccccc3S1)S2` (stereo unspecified) gave a TGI greater than 100 µM.
Same read-out and setting: with `CC(=O)O[C@]12CCCCCC1C1(O)C(O)CCC[C@H]12` (stereo partly specified) the figure was greater than 100 µM; with `COCOc1ccc(Cn2c(=O)n(C)c(=O)c3c2ncn3C)cc1[N+](=O)[O-]`, greater than 100 µM; with `O=C1C[C@H](Sc2ccccc2)C2(OCCO2)[C@@H](Sc2ccccc2)C1`, 3.49 µM.
On the same count and under the same terms, the value for `CCCNC(=O)CCC(C)[C@H]1CCC2C3C(C[C@H](OC(C)=O)[C@@]21C)[C@@]1(C)CCC2(C[C@H]1C[C@H]3OC(C)=O)OOC1(CCC(C)CC1)OO2` (stereo partly specified) was 2.42 µM.
In turn, `BrC/C=C/C[P+](c1ccccc1)(c1ccccc1)c1ccccc1` returned a TGI greater than 100 µM.
`COc1cc(NS(C)(=O)=O)ccc1N1Cc2cnc3ccc4[nH]c(C)cc1c4c23`: the TGI is greater than 100 µM.
On the same count and under the same terms, the value for `Cc1cc(=O)c2c([nH]1)NS(=O)(=O)NC2=O` was greater than 100 µM; that for `CC12CC(=O)C3C(C(=O)C1)C32C` (stereo unspecified) was greater than 100 µM.
For `COc1cc([N+](=O)[O-])c(OC)cc1-c1nc2sc(Cl)cn2c1/C=N/Nc1ccccn1`, the GI50 was greater than 50 µM and the TGI is greater than 50 µM.
The compound `O=C1CN2C(c3ccccc3)=NN(c3ccc([N+](=O)[O-])cc3)C2(c2ccccc2)c2cc(Cl)ccc2N1CC1CC1` (stereo unspecified) showed a TGI greater than 100 µM.
In the case of `C=CCNC(=S)/N=C/c1c(O)c2ccccc2oc1=O`, the TGI is greater than 100 µM.
Still for that read-out and setting: with `COc1ccc(C2(CC(C)O)SCCCS2)cc1` (stereo unspecified) the figure was greater than 100 µM; with `CC(=O)N(C(C)=O)C1=C2c3ccccc3N(S(=O)(=O)c3ccccc3)C2n2c(=O)n(-c3ccccc3)c(=O)n2C1` (stereo unspecified), greater than 100 µM; with `Cc1ccccc1C(O)(c1nccn1C)c1nccn1C`, greater than 100 µM.
`O=C(NC(Cc1ccc(I)cc1)C(=O)O)c1ccc(I)cc1` (stereo unspecified): the TGI is greater than 36.6 µM.
Compound `O=[N+]([O-])/C(C(Cl)=C(Cl)Cl)=C(\Nc1cccc2cccnc12)SCc1ccccc1` had a TGI of 38.1 µM.
Still for that read-out and setting: with `O=C(N=Nc1cc(Cl)ccc1Cl)NNc1cc(Cl)ccc1Cl` the figure was 29 µM.
On the same count and under the same terms, with `O=C(CNc1ccccc1Cl)Nn1c(-c2ccccc2)nc2ccccc2c1=O` the figure was greater than 100 µM; with `Cc1cc2[nH]c3[nH]c(=O)[nH]c(=O)c3c2cc1C`, greater than 100 µM; with `O=c1ccc2cc3ccc4cccc5ccc(c2o1)c3c45`, 44.9 µM.
Same read-out and setting: the value for `O=S(=O)(O)c1cc2ccc1/C=C\c1ccc(cc1S(=O)(=O)O)N=Nc1ccc(c(S(=O)(=O)O)c1)/C=C\c1ccc(cc1S(=O)(=O)O)N=N2` was greater than 100 µM; that for `N#C/C(=C\c1cc(Br)c(O)c(Br)c1)c1cccnc1` was 58.1 µM.

The values above are taken from PubChem BioAssay (NCI).
